Data as given in US12139526B2, “Modified chimeric receptors and related compositions and methods” (Juno Therapeutics, Inc., priority 2015, dated 2024).
Peptide text beside a SMILES is read from it.

Columns and labels:
[1] = test system: post-infusion PBMC samples
HLA-B*08:01 = HLA-B*08:01 (Homo sapiens, UniProt P01889, A93T/A95T/D138N/E176V/E187T/K202T/Q94N/R180D/S35A/V36M/Y33D/Y91F); test: REVEAL Epitope Discovery System in vitro MHC-peptide binding score; set-up: key: % binding, normalized to positive control peptide set at 100%; conditions: binding normalized to positive control peptide set at 100%, greater than 50 considered good or high affinity binding
Protocol: (§1) Actual binding affinities for certain HLA class I alleles (A*02:01, A*03:01. A*11:01, and B*08:01) were assessed in vitro for exemplary overlapping 9 amino acid peptide sequences within a portion of the 26 amino acid junction region spanning the CD28 and 4-1BB junction. Specifically, assessment was of a series of overlapping 9-mer peptides derived from the sequence […] (set forth in SEQ ID NO: 7), which contains a portion of the CD28 transmembrane domain and 4-1BB costimulatory domain spanning the junction between the domains (bond joining the two amino acids noted in underline). In addition, a series of overlapping 9-mer peptides of each of a number of different variants of this portion also were assessed, each variant containing a mutation or mutations in this region as described in Example 2.
(§2) The various 9-mer overlapping peptides were synthesized and their purity tested by MALDI-TOF Mass Spectrometry. The synthetic peptides were then incubated with recombinant MHC molecules to assess binding properties using the REVEAL Epitope Discovery System, which is a high-throughput binding assay that measures the degree to which each peptide is able to stabilize a ternary MHC-peptide complex (ProImmune, Oxford, United Kingdom). Each peptide was separately tested for this ability with respect to each of the HLA class I alleles, normalized to the degree observed for a positive control (known T cell epitope for the relevant allele). The results are reported as a score, in which the binding was normalized to the positive control peptide set at 100%.

HLA-A*11:01 = HLA-A*11:01 (Homo sapiens, UniProt P04439, A114D/D185E/E176A/F33Y/L180Q/S129P/T187R); test: as above; set-up: key: % binding, normalized to positive control peptide set at 100%; conditions: binding normalized to positive control peptide set at 100%, greater than 50 considered good or high affinity binding
Protocol: as §1, §2

HLA-A*03:01 = HLA-A*03:01 (Homo sapiens, UniProt P04439); test: as above; conditions: positive control peptide set at 100%, greater than 50 = good or high affinity binding
Protocol: as §1, §2

HLA-A*02:01 = HLA-A*02:01 (Homo sapiens, UniProt P04439, D140Y/D185E/D98H/E176V/E277Q/G131W/G231S/I119V/I121R/I166T/I218V/L300P/L318F/N151K/N90K/P208A/P217A/Q86G/Q94H/R138H/R169H/T345S); test: as above; conditions: for A*02:01 In Vitro Score: REVEAL score, positive control peptide set at 100%, greater than 50 = good or high affinity binding; for predicted or actual binding affinity or score for HLA class I: for at least one HLA allele (A*02:01, A*03:01, A*11:01, B*08:01) and/or at least one peptide, in silico or in vitro
Protocol: as §1, §2

[2] = test system: intracellular IL-2 and IFN-γ; test: Intracellular cytokine expression after co-culture with K562-CD19; type: cell-based, human; conditions: versus unmodified CAR; for percentage of cells with IFN-γ cytokine expression: CD8+/CAR+ T cells after antigen stimulation; for percentage of cells with intracellular expression of IL-2: CD4+/CAR+ and CD8+/CAR+ T cells after antigen stimulation
Protocol: The production of cytokines by the anti-CD19 CAR T cells, expressing CARs containing either the native junction region or the various modified junction regions, was assessed. Engineered T cells were co-cultured with irradiated CD19-transduced K562 target cells (K562-CD19) or parental K562 cells not expressing the CD19 antigen in the presence of Golgi inhibitor. After stimulation, the cells were then fixed, permeabilized and intracellular IL-2 and IFN-γ cytokine levels were assessed by flow cytometry in CD4+/CAR+ cells and CD8+/CAR+ cells

CC[C@H](C)[C@H](NC(=O)[C@H](Cc1ccccc1)NC(=O)[C@H](C)N)C(=O)N[C@H](C(=O)N[C@@H](Cc1ccccc1)C(=O)N[C@@H](Cc1c[nH]c2ccccc12)C(=O)N[C@H](C(=O)N[C@@H](CCCCN)C(=O)N[C@@H](CCCNC(=N)N)C(=O)NCC(=O)N[C@@H](CCCNC(=N)N)C(=O)N[C@@H](CCCCN)C(=O)N[C@@H](CCCCN)C(=O)N[C@@H](CC(C)C)C(=O)N[C@@H](CC(C)C)C(=O)O)C(C)C)[C@@H](C)CC (H-AFIIFWVKRGRKKLL-OH; N-terminus and C-terminus assumed)
specific immune response (ELISpot) [1]: specific immune responses also were detected

CC[C@H](C)[C@H](NC(=O)[C@H](Cc1ccc(O)cc1)NC(=O)[C@H](CC(C)C)NC(=O)[C@H](CC(C)C)NC(=O)[C@H](CCCCN)NC(=O)[C@H](CCCCN)NC(=O)[C@H](CCCNC(=N)N)NC(=O)CNC(=O)[C@H](CCCNC(=N)N)NC(=O)[C@H](CCCCN)NC(=O)[C@@H](NC(=O)[C@H](Cc1c[nH]c2ccccc12)NC(=O)[C@@H](N)Cc1ccccc1)C(C)C)C(=O)N[C@@H](Cc1ccccc1)C(=O)N[C@@H](CCCCN)C(=O)O (H-FWVKRGRKKLLYIFK-OH; N-terminus and C-terminus assumed)
specific immune response (ELISpot) [1]: specific immune responses also were detected

WVKRGAKKL [9-mer variant junction peptide, R31A]
B*08:01 In Vitro Score (HLA-B*08:01): 34.10
A*11:01 In Vitro Score (HLA-A*11:01): 4.60
A*03:01 In Vitro (HLA-A*03:01): 4.10
A*02:01 In Vitro Score (HLA-A*02:01): 4.70

WVKRGHKKL [9-mer variant junction peptide, R31H]
B*08:01 In Vitro Score (HLA-B*08:01): 47.60
A*11:01 In Vitro Score (HLA-A*11:01): 2.80
A*03:01 In Vitro (HLA-A*03:01): 1.40
A*02:01 In Vitro Score (HLA-A*02:01): 3.90

WVKRGNKKL [9-mer variant junction peptide, R31N]
B*08:01 In Vitro Score (HLA-B*08:01): 65.90
A*11:01 In Vitro Score (HLA-A*11:01): 4.10
A*03:01 In Vitro (HLA-A*03:01): 0.90
A*02:01 In Vitro Score (HLA-A*02:01): 2.40

WVKRGSKKL [9-mer variant junction peptide, R31S]
B*08:01 In Vitro Score (HLA-B*08:01): 56.10
A*11:01 In Vitro Score (HLA-A*11:01): 11.80
A*03:01 In Vitro (HLA-A*03:01): 1.90
A*02:01 In Vitro Score (HLA-A*02:01): 3.00

WVQRGNKKL [9-mer variant junction peptide, K28Q/R31N]
B*08:01 In Vitro Score (HLA-B*08:01): 32.00
A*11:01 In Vitro Score (HLA-A*11:01): 10.70
A*03:01 In Vitro (HLA-A*03:01): 1.50
A*02:01 In Vitro Score (HLA-A*02:01): 4.30

WVQRGRKKL [9-mer variant junction peptide, K28Q]
B*08:01 In Vitro Score (HLA-B*08:01): 45.10
A*11:01 In Vitro Score (HLA-A*11:01): 12.80
A*03:01 In Vitro (HLA-A*03:01): 4.90
A*02:01 In Vitro Score (HLA-A*02:01): 8.10

B1: R31H: variant anti-CD19 CAR / junction region with R31H, numbering SEQ ID NO:5 (protein)
chain: FWVLVVVGGVLACYSLLVTVAFIIFWVKRGHKKLLYIFKQPFMRPVQTTQEEDGCSCRFPEEEEGGCEL
modifications: CD28-4-1BB
percentage of cells with IFN-γ cytokine expression [2]: increased IFN-γ cytokine expression
predicted or actual binding affinity or score for HLA class I (HLA-A*02:01): reduced predicted or actual binding affinity or score

B2: L34A: variant anti-CD19 CAR / junction region with L34A, numbering SEQ ID NO:5 (protein)
chain: FWVLVVVGGVLACYSLLVTVAFIIFWVKRGRKKALYIFKQPFMRPVQTTQEEDGCSCRFPEEEEGGCEL
modifications: CD28-4-1BB
percentage of cells with intracellular expression of IL-2 [2]: greater percentage
percentage of cells with IFN-γ cytokine expression [2]: increased IFN-γ cytokine expression
predicted or actual binding affinity or score for HLA class I (HLA-A*02:01): reduced predicted or actual binding affinity or score

B3: L34S: variant anti-CD19 CAR / junction region with L34S, numbering SEQ ID NO:5 (protein)
chain: FWVLVVVGGVLACYSLLVTVAFIIFWVKRGRKKSLYIFKQPFMRPVQTTQEEDGCSCRFPEEEEGGCEL
modifications: CD28-4-1BB
percentage of cells with intracellular expression of IL-2 [2]: greater percentage
predicted or actual binding affinity or score for HLA class I (HLA-A*02:01): reduced predicted or actual binding affinity or score
